Experimental data reported in patent US20140128339A1, “2'-METHYL SUBSTITUTED NUCLEOSIDE DERIVATIVES AND METHODS OF USE THEREOF FOR THE TREATMENT OF VIRAL DISEASES” (priority 2012, published 2014).

Assays:
[1] = system: replicon cells; settings: CC50, MTS assay three days post dosing in replicon cells
[2] = system: replicon cells (1b-Con1); assay: microbe, parasite or virus in culture; type: cell-based, HCV; settings: Hepatitis C virus, 72 h; 1b-Con1 replicon cells, three days post-dosing, Taqman RT-PCR with GAPDH RNA as control
[3] = molecular target: T1, HCV NS5B RNA-dependent RNA polymerase (1b-BKΔ55) (Hepatitis C virus genotype 1b, UniProt P26663); assay: Inhibition of HCV NS5B polymerase by nucleoside triphosphate analogs (radiolabeled nucleotide incorporation assay); type: biochemical
T1 construct: 5 nM NS5B (1b-BKΔ55) enzyme
T1 sequence (P26663 2420-2955, stated change not applied): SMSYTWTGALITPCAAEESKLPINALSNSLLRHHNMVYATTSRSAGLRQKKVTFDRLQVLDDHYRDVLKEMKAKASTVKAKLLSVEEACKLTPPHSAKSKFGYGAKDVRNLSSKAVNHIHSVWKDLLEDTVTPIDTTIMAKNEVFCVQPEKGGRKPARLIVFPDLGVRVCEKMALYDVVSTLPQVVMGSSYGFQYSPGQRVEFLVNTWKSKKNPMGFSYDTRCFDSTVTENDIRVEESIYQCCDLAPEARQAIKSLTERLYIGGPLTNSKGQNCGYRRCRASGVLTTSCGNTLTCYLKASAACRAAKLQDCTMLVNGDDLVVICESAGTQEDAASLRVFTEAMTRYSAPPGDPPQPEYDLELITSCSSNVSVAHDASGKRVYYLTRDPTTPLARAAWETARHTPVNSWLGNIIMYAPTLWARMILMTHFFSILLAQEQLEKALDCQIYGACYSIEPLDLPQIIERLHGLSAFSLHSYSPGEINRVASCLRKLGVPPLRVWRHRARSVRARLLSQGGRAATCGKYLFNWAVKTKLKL
Method: To measure inhibition of the enzymatic activity of the HCV NS5B RNA-dependent RNA polymerase by the nucleoside triphosphate compounds of the present invention, a radiolabeled nucleotide incorporation assay was used. This assay is a modified version of the assay described in International Publication No. WO2002/057287. Briefly, 50 μL reactions containing 20 mM HEPES (pH 7.3); 7.5 mM DTT; 20 units/ml RNasIN; 1 μM each of ATP, GTP, UTP and CTP; 20 μCi/mL [^33P]-CTP; 10 mM MgCl; 60 mM NaCl; 100 μg/ml BSA; […] heteropolymer RNA template; and 5 nM NS5B (1b-BKΔ55) enzyme are incubated at room temperature for 1 hour. The assay is then terminated by the addition of 500 mM EDTA (50 μl). The reaction mixture is transferred to a Millipore DE81 filter plate and the incorporation of labeled CTP is determined using Packard TopCount. Compound IC50 values can then be calculated from experiments with 10 serial 3-fold dilutions of the inhibitor in duplicate.
Data was obtained using this method for the NTP analogs of selected compounds below of the present invention, and is set forth below. […] Data is also presented for comparative compounds, labeled as Compound B and Compound C.

| SMILES | Cytotoxicity [1] [µM] | EC50 [2] [µM] | Ki [3] [µM] |
| --- | --- | --- | --- |
| CCCCCCCCCCCCCCCCCC(=O)Nc1ccn([C@@H]2O[C@H](COP(=O)(N[C@@H](C)C(=O)OC(C)C)Oc3ccccc3)[C@@H](O)[C@@]2(C)N=[N+]=[N-])c(=O)n1 (some centres unmarked) [Compound 20] | >100 | 3.6 | – |
| CCCC(CCC)C(=O)O[C@@H]1[C@@H](COP(=O)(N[C@@H](C)C(=O)OC(C)C)Oc2ccccc2)O[C@@H](n2ccc(N)nc2=O)[C@]1(C)N=[N+]=[N-] (some centres unmarked) [Compound 16] | 13 | 0.1 | – |
| CC(C)NC(=O)O[C@@H]1[C@@H](COP(=O)(N[C@@H](C)C(=O)OC(C)C)Oc2ccccc2)O[C@@H](n2ccc(=O)[nH]c2=O)[C@]1(C)C#N (some centres unmarked) [Compound 27] | >100 | > 100 | – |
| CCCCCCCCCCCCCCCCCC(=O)Nc1ccn(C2O[C@H](CO[P@](=O)(N[C@@H](C)C(=O)OC(C)C)Oc3ccccc3)[C@@H](OC(=O)CCCCCCCCCCCCCCCCC)[C@@]2(C)C#N)c(=O)n1 (some centres unmarked) [Compound 13] | >100 | > 100 | – |
| CC(C)OC(=O)[C@H](C)NP(=O)(OC[C@H]1O[C@@H](n2ccc(=O)[nH]c2=O)[C@](C)(C#N)[C@@H]1OC(=O)C1CC1)Oc1ccccc1 (some centres unmarked) [Compound 24] | >100 | 6.3 | – |
| C[C@@]1(N)[C@H](O)[C@@H](COP(=O)(O)OP(=O)(O)OP(=O)(O)O)O[C@H]1n1ccc(N)nc1=O [Compound 34] | – | – | 0.05 |
| CC(C)OC(=O)[C@H](C)NP(=O)(OC[C@H]1O[C@@H](n2ccc(=O)[nH]c2=O)[C@](C)(C#N)[C@@H]1OC(=O)C1CCC1)Oc1ccccc1 (some centres unmarked) [Compound 25] | >100 | 0.7 | – |
| CCCC(CCC)C(=O)O[C@@H]1[C@@H](COP(=O)(N[C@@H](C)C(=O)OC(C)C)Oc2ccccc2)O[C@@H](n2ccc(=O)[nH]c2=O)[C@]1(C)C#N (some centres unmarked) [Compound 29] | 20 | 0.19 | – |
| CCCCCCCCCCCCCCCCCC(=O)Nc1ccn(C2O[C@H](CO[P@](=O)(N[C@@H](C)C(=O)OC(C)C)Oc3ccccc3)[C@@H](O)[C@@]2(C)C#N)c(=O)n1 (some centres unmarked) [Compound 11] | 25 | 1.8 | – |
| CC(C)OC(=O)[C@H](C)N[P@@](=O)(OC[C@H]1OC(n2ccc(NC(=O)C(C)C)nc2=O)[C@](C)(C#N)[C@@H]1O)Oc1ccccc1 (some centres unmarked) [Compound 10] | 10 | 9.5 | – |
| C[C@@]1(N)[C@H](O)[C@@H](COP(=O)(O)OP(=O)(O)OP(=O)(O)O)O[C@H]1n1ccc(=O)[nH]c1=O [Compound 35] | – | – | 4.7 |
| C#C[C@]1(C)[C@H](O)[C@@H](COP(=O)(O)OP(=O)(O)OP(=O)(O)O)O[C@H]1n1ccc(=O)[nH]c1=O [Compound 36] | – | – | 11 |
| CC(C)OC(=O)[C@H](C)NP(=O)(OC[C@H]1O[C@@H](n2ccc(NC(=O)C(C)C)nc2=O)[C@](C)(N=[N+]=[N-])[C@@H]1OC(=O)C(C)C)Oc1ccccc1 (some centres unmarked) [Compound 18] | >100 | 15 | – |
| CCCCC(=O)O[C@@H]1[C@@H](COP(=O)(N[C@@H](C)C(=O)OC(C)C)Oc2ccccc2)O[C@@H](n2ccc(=O)[nH]c2=O)[C@]1(C)C#N (some centres unmarked) [Compound 28] | 76 | 0.7 | – |
| CC(C)OC(=O)[C@H](C)NP(=O)(OC[C@H]1O[C@@H](n2ccc(=O)[nH]c2=O)[C@](C)(C#N)[C@@H]1OC(=O)C(C)C)Oc1ccccc1 (some centres unmarked) [Compound 23] | >100 | 0.7 | – |
| CC(C)OC(=O)[C@H](C)N[P@@](=O)(OC[C@H]1OC(n2ccc(N)nc2=O)[C@](C)(C#N)[C@@H]1OC(=O)C(C)C)Oc1ccccc1 (some centres unmarked) [Compound 7] | >100 | 0.425 | – |
| CC(C)OC(=O)[C@H](C)NP(=O)(OC[C@H]1O[C@@H](n2ccc(N)nc2=O)[C@](C)(N=[N+]=[N-])[C@@H]1OC(=O)C(C)C)Oc1ccccc1 (some centres unmarked) [Compound 15] | >100 | 0.6 | – |
| CC(C)OC(=O)[C@H](C)NP(=O)(OC[C@H]1O[C@@H](n2ccc(NC(=O)C(C)C)nc2=O)[C@](C)(N=[N+]=[N-])[C@@H]1O)Oc1ccccc1 (some centres unmarked) [Compound 19] | >100 | 8.5 | – |
| CCCCCCCCCCCCCCCCCC(=O)O[C@@H]1[C@@H](COP(=O)(N[C@@H](C)C(=O)OC(C)C)Oc2ccccc2)O[C@@H](n2ccc(N)nc2=O)[C@]1(C)N=[N+]=[N-] (some centres unmarked) [Compound 17] | 9.9 | 8.2 | – |
| CC(C)OC(=O)[C@H](C)NP(=O)(OC[C@H]1O[C@@H](n2ccc(NC(=O)C(C)C)nc2=O)[C@](C)(C#N)[C@@H]1OC(=O)C(C)C)Oc1ccccc1 (some centres unmarked) [Compound 12] | 76 | 10 | – |
| CC(C)OC(=O)O[C@@H]1[C@@H](COP(=O)(N[C@@H](C)C(=O)OC(C)C)Oc2ccccc2)O[C@@H](n2ccc(=O)[nH]c2=O)[C@]1(C)C#N (some centres unmarked) [Compound 26] | >100 | 1 | – |
| CCCCCCCCCCCCCCCCCC(=O)O[C@@H]1[C@@H](CO[P@](=O)(N[C@@H](C)C(=O)OC(C)C)Oc2ccccc2)OC(n2ccc(N)nc2=O)[C@]1(C)C#N (some centres unmarked) [Compound 8] | 6.54 | 5.09 | – |
